Assay results published in publication PMC6727188, “Image-Based Investigation: Biorelevant Solubility of α and γ Indomethacin” (Analytical Chemistry, 2019).
Converted amounts (≈) assume the structure as drawn.

What was measured:
[1] = Image-based single-particle-analysis (SPA) solubility measurement in a flow-through setup; type: physicochemical; conditions: for solubility ratio (RS) FaSSGF/FaSSGFblk / solubility ratio (RS) FaSSGF/HCl / solubility ratio (RS) FaSSGFblk/HCl / solubility ratio (RS) FeSSIF/FeSSIFblk: same solid-state form in different media
Procedure: Dissolution experiments utilizing the SPA method were performed using a custom-made flow-through setup (Figure 1). The experiments were conducted at room temperature (22 °C) rather than at 37 °C in order to ensure controlled experimental conditions. The setup enables the trapping of particles under constant-flow conditions. In this way, dissolved molecules are continuously extracted from the chamber, and sink conditions are maintained. As the measurement can be started as soon as the solvent comes in contact with the entrapped particles, the actual solubility of a metastable form can be measured before any possible solid-state transformation occurs that could affect the solubility. In eq 1, at sink conditions, bulk concentration (Cb) can be disregarded because it is practically zero. This means the dissolution rate (dm/dt) is dependent only on the equilibrium solubility at the interface (CS); k is the setup-dependent transport-rate constant determined as described by Svanbäck.[20] [drawing 1] 1 For a single measurement, approximately 10 mL of dissolution medium and less than 0.1 mg of sample were used. Online images were acquired over 15 min through the transparent part of the flow-through chamber using a USB microscope (Gigastone S1-100, Irvine, CA). At least five particles per solid-state form per medium were measured. For the analysis of the image data, a MatLab script was previously developed by Svanbäck and co-workers.[20],[22] The script enables quantification of the particle’s morphology change (i.e., dissolution rate) and, consequently, calculation of the solubility according to eq 1.

physchem = type: physicochemical; conditions: for solubility: thermodynamic from solid, Shake-flask solubility
Procedure: The solubilities of α and γ indomethacin were measured by the conventional shake-flask method in HCl (pH 1.6), FaSSGFblk, and FeSSIFblk. A detailed description of the methodology can be found in the Supporting Information on page S-2.
Effect of particle morphology on the solubility values measured by the SPA method was assessed by the
MatLab® regionprops toolbox. Three morphology-describing parameters were extracted; namely:
eccentricity, major axis length and minor axis length. The morphology parameters were then plotted against
solubility values of individual particles (Figure S1 and Figure S2). No specific effect of particle morphology
on solubility, in the size range studied (5-25 µm), was found.
Shake-flask solubility measurements
Indomethacin α and γ samples were placed in excess amount into vials. The vials were filled with HCl,
FaSSGFblk and FeSSIFblk media and left to stir on a rotating machine. This procedure was repeated in
triplicate for both solid-state forms and the three media. After 24h, 48h and 72h samples of 2 mL were
extracted and filtered (Whatman™ PVDF 13 mm with 0.45 µm pore size). After filtration, the samples of α
indomethacin were diluted four times with the corresponding medium […]
The drug concentration in the samples was determined using an Agilent High Performance Liquid
Chromatography (HPLC) 1260 system (Agilent Technologies, Germany). The Phenomenex Gemini NX-
C18, 3 µm, 100 x 4.6 mm column (Phenomenex, Torrance, CA) was used in the assays. The temperature of
the column was set to 30°C. Mobile phase used was 0.2% H3PO4:Acetonitrile (40:60, v:v) with flow rate of
1.5 mL/min. Injection volume was 20 µL and total run time 5 min. Detection was preformed at 270 nm.
Standard solutions of indomethacin in MilliQ:Ethanol (50:50, v:v) were prepared and analyzed with HPLC
to construct the calibration curve. All samples were analyzed in triplicate: 0.1, 0.5, 1, 10, 50 and 100 µg/mL
After 72h, the remaining excess solids, from vials were initially α form of indomethacin was placed, were
filtered and dried overnight in a vacuum oven. The next day, the excess solids were analyzed by XRPD and
XRPD diffractograms of the
remaining solids are presented in the Figure S3 and DSC thermograms in the Figure S4.
When comparing the shake-flask solubility values to the SPA solubility values, they are in the same rank
order and within the generally accepted interlaboratory variance, 0.6 log units.32 Moreover, a slight shift of
XRPD peaks to the left and appearance of a small melting peak at 159.3°C ± 0.1°C in the DSC thermograms
of the remaining excess solid samples indicate a presence of γ form (Figure S3 and S4). The presence of γ
form, in vials were initially pure α form was placed, would result in lower solubility ratio of α to γ solubility
measured by shake-flask method (1.7 ± 0.4) when compared to the ratio obtained by the SPA method (3.3 ±
0.5). With the SPA method, the actual solubility of the metastable α form was measured before any possible
solid-state transformation occurred that could affect the measurement. This was achieved by starting the
measurement as soon as the solvent came in contact with the sample and also by maintaining the sink
conditions in the flow-through cell.

[2] = Estimation of the free-energy difference between polymorphs from DSC melting data; type: physicochemical; conditions: estimated from DSC melting data, extrapolated to room temperature
Procedure: DSC experiments were performed using a DSC823e (Mettler-Toledo, Greifensee, Switzerland) equipped with a refrigerated cooling system (Julabo FT 900, Seelbach, Germany). Nitrogen was used as a purge gas (50 mL/min).
Samples (2–5 mg) were tightly packed into standard aluminum crucibles (40 μL) with pierced lids. Two different procedures were used in these measurements. For determination of melting temperature and enthalpy, the samples were equilibrated at 25 °C for 3 min and then linearly heated with a heating rate of 10 °C/min to 180 °C. For determination of heat capacities, the samples were equilibrated at 140 °C and then heated up to 180 °C using a TOPEM-modulated heating program with a heating rate of 1 °C/min and a pulse height of 1 °C. Samples were measured in triplicate, and thermal events were analyzed using STARe software (Mettler-Toledo, Greifensee, Switzerland). Temperatures of melting, enthalpies of melting, and heat capacities were used to estimate the free-energy difference between the α and γ polymorphs.
The free-energy difference between two polymorphs can be estimated from their melting data or their respective solubility values. […]

[3] = parameters: method as in ref 9 (Hancock et al.); conditions: 200 mL deionized water, 45 °C; ref 9 (Hancock et al.); cited from earlier work
[4] = parameters: method as in ref 15 (Fagerberg and co-workers); conditions: 37 °C, μDISS profiler; ref 15 (Fagerberg and co-workers); cited from earlier work
[5] = SPA method, FaSSGF pH 1.6, 22 °C
[6] = SPA method, FaSSGFblk (blank FaSSGF) pH 1.6, 22 °C
[7] = SPA method, FeSSIF pH 5.0, 22 °C
[8] = SPA method, FeSSIFblk (blank FeSSIF) pH 5.0, 22 °C

Row | solubility [1, 5] [µg/mL] | solubility [1, 6] [µg/mL] | solubility [1, 7] [µg/mL] | solubility [1, 8] [µg/mL] | solubility ratio (RS) FaSSGF/FaSSGFblk ([1]; SPA method) | solubility ratio (RS) FaSSGF/HCl ([1]; SPA method) | solubility ratio (RS) FaSSGFblk/HCl ([1]; SPA method) | solubility ratio (RS) FeSSIF/FeSSIFblk ([1]; SPA method) | Structure (SMILES) | other results
1 | 0.29 ± 0.16 (≈ 0.811 µM) | 0.14 ± 0.09 (≈ 0.391 µM) | 15.7 ± 10.4 (≈ 43.9 µM) | 2.79 ± 1.67 (≈ 7.8 µM) | 2.1 | 0.9 | 0.4 | 5.6 | COc1ccc2c(c1)c(CC(=O)O)c(C)n2C(=O)c1ccc(Cl)cc1 [α form, indomethacin] | solubility ([1]; SPA method, HCl pH 1.6, 22 °C): 0.34 ± 0.20 µg/mL (≈ 0.95 µM); ratio of α- to γ-solid-state-form solubility ([1]; SPA method, constant in all studied media (HCl, FaSSGFblk, FaSSGF, FeSSIFblk, FeSSIF)): 3.3 ± 0.5; free-energy difference ΔG between the α and γ polymorphs ([1]; from the SPA solubility ratios, molar units): 0.693 kcal/mol; free-energy difference ΔG between the α and γ polymorphs ([1]; from the α- to γ-solubility ratio obtained with the SPA method (eq 7), ambient temperature): 8 ± 1 J/g; free-energy difference ΔG between the α and γ polymorphs (physchem): 0.311 kcal/mol; ratio of α- to γ-solid-state-form solubility (physchem): 1.7 ± 0.4; solubility (physchem; pH 1.6, fassgf or other biorelevant): 0.5 ± 0.2 µg/mL (≈ 1.4 µM); solubility (physchem; pH 1.6, simulated gastric fluid): 0.6 ± 0.1 µg/mL (≈ 1.68 µM); solubility (physchem; pH 5, fassgf or other biorelevant): 9 ± 0.2 µg/mL (≈ 25.2 µM); free-energy difference ΔG between the α and γ polymorphs [2]: 12 ± 7 J/g; α- to γ-solubility ratio [3]: 1.1
2 | 0.10 ± 0.02 (≈ 0.279 µM) | 0.04 ± 0.03 (≈ 0.112 µM) | 3.80 ± 1.74 (≈ 10.6 µM) | 0.94 ± 0.58 (≈ 2.63 µM) | 2.5 | 1.0 | 0.4 | 4.0 | COc1ccc2c(c1)c(CC(=O)O)c(C)n2C(=O)c1ccc(Cl)cc1 [γ form, indomethacin] | solubility ([1]; SPA method, HCl pH 1.6, 22 °C, listed as Indomethacin γ): 0.10 ± 0.05 µg/mL (≈ 0.279 µM); Shake-flask solubility (physchem; pH 1.6): 0.3 ± 0.1 µg/mL; Shake-flask solubility (physchem; pH 5): 6.4 ± 0.1 µg/mL; fold increase in solubility from FeSSIFblk to FeSSIF [4]: 7.3 fold
